Consider 4 compounds from patent publication US20200246485A1, “METHOD FOR GENERATING A DIHYDROMYRICETIN (DHM) FORMULATION” (82 LABS INC, priority 2019, published 2020).

The term solubility denotes how much of the substance goes into solution per volume.

In brackets after ≈: the same amount, converted by molar mass. Read-outs that look alike come from different tables or passages of the source.

Data set [1] in a line: physchem. As to conditions: 25° C.
The conditions of data set [2]: at 25° C.; background; cited from earlier work.
Data set [3] can be described thus: DHM solubility in water. Format: physicochemical.
For data set [4] the following is noted: in words; cited from earlier work.
For data set [5] the following is noted: cited from earlier work.

With `O=C1c2c(O)cc(O)cc2O[C@H](c2cc(O)c(O)c(O)c2)[C@H]1O` [DHM, (2R,3R)-3,5,7-trihydroxy-2-(3,4,5-trihydroxyphenyl)-2,3-dihydrochromen-4-one], the solubility was 700 µg/mL (≈ 2190 µM) in data set [1]; 200 µg/mL (≈ 625 µM) in data set [2]; 15500 µg/mL (≈ 48400 µM) in data set [3] (100° C. (hot water)); 700 µg/mL (≈ 2190 µM) in data set [3] (water, 25 °C, water, 25° C. (room temperature), read-out: Solubility); 16000 µg/mL (≈ 50000 µM) in data set [3] (water, 100 °C, water, 100° C. (hot water), read-out: Solubility).

On to `OC[C@H]1O[C@H](O[C@]2(CCl)O[C@H](CCl)[C@@H](O)[C@@H]2O)[C@H](O)[C@@H](O)[C@H]1Cl` [sucralose], for which the solubility in water result in data set [4] is on record as “freely soluble”.

On to `OC[C@H]1O[C@@H]2O[C@H]3[C@H](O)[C@@H](O)[C@@H](O[C@H]4[C@H](O)[C@@H](O)[C@@H](O[C@H]5[C@H](O)[C@@H](O)[C@@H](O[C@H]6[C@H](O)[C@@H](O)[C@@H](O[C@H]7[C@H](O)[C@@H](O)[C@@H](O[C@H]1[C@H](O)[C@H]2O)O[C@@H]7CO)O[C@@H]6CO)O[C@@H]5CO)O[C@@H]4CO)O[C@@H]3CO` [α-Cyclodextrin, α-cyclodextrin], for which, in data set [5], the “pKa value (25° C.)” value is listed as 12.331.

Regarding `OC[C@H]1O[C@@H]2O[C@H]3[C@H](O)[C@@H](O)[C@@H](O[C@H]4[C@H](O)[C@@H](O)[C@@H](O[C@H]5[C@H](O)[C@@H](O)[C@@H](O[C@H]6[C@H](O)[C@@H](O)[C@@H](O[C@H]7[C@H](O)[C@@H](O)[C@@H](O[C@H]8[C@H](O)[C@@H](O)[C@@H](O[C@H]1[C@H](O)[C@H]2O)O[C@@H]8CO)O[C@@H]7CO)O[C@@H]6CO)O[C@@H]5CO)O[C@@H]4CO)O[C@@H]3CO` [β-Cyclodextrin, β-cyclodextrin], in data set [5], the “pKa value (25° C.)” value is given as 12.202.
